Measured values from patent publication US6107549A, “Genetically engineered plant resistance to thiazopyr and other pyridine herbicides” (Monsanto Company, priority 1999, dated 2000).
Where two headings read alike, the source gives them in different places.

Columns and labels:
pyridine-esterase = target: T1, pyridine-esterase (Oryctolagus cuniculus, UniProt P12337, A196R/H30K); assay type: biochemical, rabbit; settings: tobacco line #37437 extract, FIG. 4
T1 construct: made in house; host or cells: transgenic tobacco (Samson) and tomato (UC82B) plants, tissue extracts
T1 sequence (P12337 19-565 H30K/A196R): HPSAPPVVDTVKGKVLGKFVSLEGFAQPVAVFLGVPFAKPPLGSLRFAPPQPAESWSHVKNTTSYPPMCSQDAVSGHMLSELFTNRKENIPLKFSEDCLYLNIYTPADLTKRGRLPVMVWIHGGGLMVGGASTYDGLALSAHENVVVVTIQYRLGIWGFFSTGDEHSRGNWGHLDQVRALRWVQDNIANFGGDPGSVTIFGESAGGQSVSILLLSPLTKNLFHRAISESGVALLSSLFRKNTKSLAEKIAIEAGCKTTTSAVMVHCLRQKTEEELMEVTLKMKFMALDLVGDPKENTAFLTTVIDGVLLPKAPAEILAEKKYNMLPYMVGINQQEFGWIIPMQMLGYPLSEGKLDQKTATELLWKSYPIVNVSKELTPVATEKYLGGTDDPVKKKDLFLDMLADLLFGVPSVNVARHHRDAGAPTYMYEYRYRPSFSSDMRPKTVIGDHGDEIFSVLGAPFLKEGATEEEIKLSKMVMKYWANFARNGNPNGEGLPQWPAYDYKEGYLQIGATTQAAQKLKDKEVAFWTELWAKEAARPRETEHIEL
Procedure: (§1) Esterase activity assays. Esterase activity was measured in vitro by conversion of either [^14 C]thiazopyr or [^14 C]MON 14300 to their corresponding monoacid. Pyridine-esterase activity was assayed during protein purification and from tissue extracts of transgenic plants. The homogenizing buffer for plant tissues consisted of 100 mM Tris pH 8.0, 1 mM EDTA, 1 mM DTT, and 10% glycerol in water. Plant tissues (1 g/ml buffer) including leaves, seeds, flowers, seedlings, etc. were homogenized in conical centrifuge tubes using a spinning pestle at 4° C. Following centrifugation (12,000× g), the supernatant (250 μl) was assayed immediately for esterase activity by incubation with [^14 C]thiazopyr or [^14 C]MON 14300 (4 μg) in 0.1 M Tris pH 8.0 buffer (50 μl) at 37° C. The reaction was sampled (100 μL) at various times (0.5 to 100 hr) to generate a kinetic profile of monoacid formation. The reaction was stopped by addition of 1% trifluoroacetic acid in acetonitrile (v/v, 150 μl). Following centrifugation (12,000× g for 3 min), the supernatant was analyzed by HPLC/RAD (radioactivity detection) to resolve the monoacid from the parent herbicide and other metabolites. Control reactions in the absence of the esterase recovered un-reacted thiazopyr or MON 14300 for the duration of experiments. Esterase activity was also assayed during protein purification following a similar procedure except a single time-point (1-2 hrs) of incubation was selected within the linear range of reaction. In vitro assays also employed three commonly used calorimetric (p-nitrophenyl butyrate) or fluorescent (4-methyl umbelliferyl butyrate and 5-bromo-4-chloro-3-indolylacetate) substrates. These substrates are useful in rapidly and qualitatively detecting general esterase activity.
Tissue extracts from 3 tobacco R1 seedlings were employed for further studies. Two of the lines (#37437 and #37432) expressed high levels of esterase (~0.5%) and one line (#37436) which expressed no pyridine-esterase was used as negative control. Tissue extracts were incubated with [^14 C]MON 14300 and formation of the monoacid monitored with time. […] In comparison, less that 2% monoacid was detected in line (#37436). […] First, pyridine-esterase was capable of driving the hydrolysis reaction to completion with no apparent product inhibition, and second, there was no endogenous esterase activity in tobacco which catalyzed MON 14300 hydrolysis.

RLE3 = target: T2, RLE3 (Oryctolagus cuniculus, UniProt P12337, A196R/H30K); assay: Esterase activity of RLE3 cDNA expressed in insect cells; assay type: biochemical, rabbit; settings: culture media from RLE3 cells; esterase inhibitor
T2 construct: 19-residue synthetic ER signal peptide (design based on the homologous rat esterase, Robbi et al. 1990; Ala added after Met) (N); made in house; host or cells: Spodoptera frugiperda SF9 cells, baculovirus
T2 sequence (P12337 with tags, fused parts or gaps H30K/A196R): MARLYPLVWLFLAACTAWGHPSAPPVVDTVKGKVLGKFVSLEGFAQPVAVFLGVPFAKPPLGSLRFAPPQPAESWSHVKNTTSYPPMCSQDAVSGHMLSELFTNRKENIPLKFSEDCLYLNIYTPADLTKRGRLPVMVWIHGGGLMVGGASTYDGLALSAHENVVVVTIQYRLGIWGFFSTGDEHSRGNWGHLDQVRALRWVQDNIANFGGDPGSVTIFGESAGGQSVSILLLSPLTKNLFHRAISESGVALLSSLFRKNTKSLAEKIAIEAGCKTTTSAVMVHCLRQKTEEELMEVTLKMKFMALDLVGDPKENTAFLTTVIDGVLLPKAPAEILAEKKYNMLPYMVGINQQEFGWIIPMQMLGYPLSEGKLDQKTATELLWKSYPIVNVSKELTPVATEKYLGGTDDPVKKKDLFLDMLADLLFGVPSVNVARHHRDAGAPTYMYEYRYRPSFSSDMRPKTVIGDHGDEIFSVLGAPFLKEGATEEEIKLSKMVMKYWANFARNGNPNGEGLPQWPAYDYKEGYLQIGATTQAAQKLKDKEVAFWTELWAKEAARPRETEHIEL
Procedure: as §1
Expression of RLE1 and RLE3 cDNAs in insect cells. Mature rabbit liver esterases are glycoproteins which reside in the lumen of the endoplasmic reticulum (ER) (Korza et al., 1988). […]

[1] = Feng et al., 1995b; cited from earlier work

## COC(=O)c1c(Cl)nn(C)c1S(=O)(=O)NC(=O)Nc1nc(OC)cc(OC)n1
pyridine-esterase
  hydrolysis by pyridine-esterase (substrate specificity): little to no hydrolysis
pyridine-esterase; listed as halosulfiron
  hydrolysis by pyridine-esterase (substrate specificity): not

## CSC(=O)c1c(C(F)F)nc(C(F)(F)F)c(C(=O)SC)c1CC(C)C [Dithiopyr, dithiopyr]
pyridine-esterase
  hydrolysis by pyridine-esterase (substrate specificity): not hydrolyzed

## O=[N+]([O-])c1ccc(OP(=O)(O)Oc2ccc([N+](=O)[O-])cc2)cc1 [bis(p-nitropheyl) phosphate]
RLE3
  inactivation of esterase activity: inactivated

## CC(C)Cc1c(C(=O)O)c(C(F)F)nc(C(F)(F)F)c1C1=NCCS1 [monoacid metabolite]
[1]
  herbicidal activity: virtually devoid of any herbicidal activity
